Measurements from PubChem BioAssay (NCI).
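Cultured in 96-well plates, cells were exposed to test compound for 48 hours across five concentrations. TGI denotes the concentration required for complete inhibition of growth.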

Columns and labels:
Experiment in all cases: NCI anticancer screen, dose series, 48 h
HS 578T breast = tested on: HS 578T breast
SF-268 CNS = tested on: SF-268 CNS
SK-MEL-2 melanoma = tested on: SK-MEL-2 melanoma
LOX IMVI melanoma = tested on: LOX IMVI melanoma
NCI/ADR-RES ovarian = tested on: NCI/ADR-RES ovarian
CAKI-1 renal = tested on: CAKI-1 renal
UACC-257 melanoma = tested on: UACC-257 melanoma
ACHN renal = tested on: ACHN renal
KM12 colon = tested on: KM12 colon
OVCAR-3 ovarian = tested on: OVCAR-3 ovarian

Row | Structure (SMILES) | TGI (HS 578T breast) | TGI (SF-268 CNS) | TGI (SK-MEL-2 melanoma) | TGI (LOX IMVI melanoma) | TGI (NCI/ADR-RES ovarian) | TGI (CAKI-1 renal) | TGI (UACC-257 melanoma) | TGI (ACHN renal) | TGI (KM12 colon) | TGI (OVCAR-3 ovarian)
1 | O=C1CC(n2ccnc2)c2c(Cl)sc(Cl)c21 (stereo not given) | > 78.8 µM | 59.3 µM | 54.9 µM | 19.2 µM | 71.5 µM | 36.1 µM | > 51.1 µM | 33.2 µM | 33.9 µM | 30.3 µM
2 | CCOC(=O)/C=C(/C(=O)OCC)n1ccc(=O)n(Cc2cn(CCCCOC(C)=O)nn2)c1=O | > 100 µM | > 100 µM | > 100 µM | > 100 µM | > 100 µM | 53.6 µM | > 100 µM | > 100 µM | > 100 µM | > 100 µM
3 | c1ccc2c(c1)CCN1CCc3ccccc3C1C2 (stereo not given) | > 100 µM | > 100 µM | > 100 µM | > 100 µM | > 100 µM | > 100 µM | > 100 µM | > 100 µM | > 100 µM | > 100 µM
4 | O=C1CSC(c2ccccc2)N1c1ccc(-c2ccc(-n3c(-c4ccccc4)nc4ccccc4c3=O)cc2)cc1 (stereo not given) | > 100 µM | > 100 µM | > 100 µM | > 100 µM | > 100 µM | > 100 µM | > 100 µM | > 100 µM | > 100 µM | > 100 µM
5 | COc1ccc(C[C@H]2COC(=O)[C@@H]2Cc2ccc(Br)cc2)cc1OC | > 90.9 µM | > 31.6 µM | 51.8 µM | 37.8 µM | > 100 µM | > 84 µM | 74.6 µM | > 100 µM | > 75.2 µM | > 100 µM
6 | COC(=O)c1cc(/C=C/C(=O)Cc2ccccc2)cn1S(=O)(=O)c1ccccc1 | > 100 µM | > 100 µM | > 100 µM | > 100 µM | > 100 µM | > 100 µM | > 100 µM | > 100 µM | > 100 µM | > 100 µM
7 | Cc1cn(C2CC(O)C(Cn3nncc3Cn3cnc4c(N)ncnc43)O2)c(=O)[nH]c1=O (stereo not given) | > 100 µM | > 100 µM | > 100 µM | > 100 µM | > 100 µM | > 100 µM | > 100 µM | > 100 µM | > 100 µM | > 100 µM
8 | COc1cc(-c2nc(N)c(C#N)c3c2CCS(=O)(=O)c2ccc(C)cc2-3)cc(OC)c1OC | > 100 µM | > 100 µM | > 100 µM | > 100 µM | > 100 µM | > 100 µM | > 100 µM | > 100 µM | > 100 µM | > 100 µM
9 | O=c1ccn(C/C=C/c2ccccc2)c(=S)n1C/C=C/c1ccccc1 | > 100 µM | > 100 µM | > 100 µM | > 100 µM | > 100 µM | > 100 µM | > 100 µM | > 100 µM | > 100 µM | > 100 µM
10 | CN(C)c1n2c3ccc([N+](=O)[O-])cc3n3c(N(C)C)[n+]4ccccc4c3c2c2cccc[n+]12 | > 100 µM | > 100 µM | > 100 µM | > 100 µM | > 100 µM | > 100 µM | > 100 µM | > 100 µM | > 100 µM | > 100 µM
11 | Nc1c(F)c(F)c2c(c1F)N(CCCCCl)c1ccccc1S2 | > 100 µM | > 100 µM | > 100 µM | > 100 µM | > 100 µM | > 100 µM | > 100 µM | > 100 µM | > 100 µM | > 100 µM
12 | CC1(C)N=C(C(N)=O)c2ncn(Cc3ccccc3)c2N1 | > 100 µM | > 100 µM | > 100 µM | > 100 µM | > 100 µM | > 100 µM | > 100 µM | > 100 µM | > 100 µM | > 100 µM
13 | COc1ccc2nc3cccc([N+](=O)[O-])c3c(NCCC(=O)O)c2c1 | > 10 µM | > 10 µM | > 10 µM | > 10 µM | > 10 µM | > 10 µM | > 10 µM | > 10 µM | > 10 µM | > 10 µM
14 | OC1C2CCCCN2C[C@@H](O)[C@H]1O (stereo not given in full) | > 100 µM | > 100 µM | > 100 µM | > 100 µM | > 100 µM | > 100 µM | > 100 µM | > 100 µM | > 100 µM | > 100 µM
15 | Cc1ccc(NC(=O)c2cccc(OP(=O)(Nc3ccc(C)cc3)Nc3ccc(C)cc3)c2)cc1 | 79.9 µM | > 100 µM | > 100 µM | > 100 µM | > 100 µM | > 100 µM | > 100 µM | 20.6 µM | > 100 µM | > 100 µM
16 | CNC(=O)O/N=C1\N(C)CN(c2ccccc2)C12CCN(CCCC(=O)c1ccc(F)cc1)CC2 | > 100 µM | > 100 µM | > 100 µM | > 100 µM | > 100 µM | > 100 µM | 35.4 µM | > 100 µM | 81.7 µM | > 100 µM
